Data reported in patent publication US20210128596A1, “COMPOSITIONS AND METHODS FOR TREATING SEPTIC CARDIOMYOPATHY” (UNIVERSITY OF PENNSYLVANIA, priority 2017, published 2021).
Entries after “also recorded” stand apart in the source; their conditions may differ.

Tests used:
[1] = tested on: adenylyl cyclase V/VI; assay: Adenylyl cyclase V/VI expression (western blot) in CLP mice; format: in vivo, mouse; conditions: SDG following CLP
Experimental: (§1) Mice were either sham treated (n=3) or subjected to cecal ligation puncture (CLP, n=6). SDG was administered to three mice following CLP.

[2] = tested on: AC16 cells; assay: cAMP levels in AC16 cells; format: cell-based, human
Experimental: AC16 cells were either left unstimulated or stimulated with either forskolin or isoproterenol for 12 hours and then treated with SDG, Liposaccharide (LPS) or both.
(§2) Cell culture—A human ventricular cardiomyocyte-derived cell line, designated AC-16, was used for some in vitro experiments. Cells were maintained in Dulbecco's modified Eagle's medium-nutrient mixture F-12 (DMEM-F-12; Invitrogen, Carlsbad, Calif.).

[3] = tested on: protein kinase A (PKA); assay: Protein kinase A (PKA) activity in AC16 cells; format: cell-based, human
Source text: AC16 cells were either left untreated or treated with SDG, Liposaccharide (LPS), or both.
as §2

[4] = tested on: AC16 cells; assay: mRNA levels of fusion and fission markers, quantitative PCR, LPS; format: cell-based, human
Experimental: AC16 cells were either left untreated or treated with Liposaccharide (LPS) in the absence or presence of SDG; the levels of DRP1, Opa, MFN1, MFN2, and FIS1 mRNAs were measured in quantitative PCR.
(§3) RNA purification and gene expression analysis—Total RNA was purified from AC16 cells or hearts using the TRIzol reagent according to the instructions of the manufacturer (Invitrogen). DNase-treated RNA was used for cDNA synthesis using the ProtoScript II First Strand cDNA Synthesis Kit (New England Biolabs). Quantitative real-time PCR was performed with the Sybr Select Master Mix (Applied Biosystems). Incorporation of the SYBR green dye into the PCR products was monitored with the Applied Biosystems StepOnePlus Real-Time PCR System. Samples were normalized against mouse 36B4 or human rps13 RNA.

[5] = tested on: MCU and MICU1; assay: MCU and MICU1 expression in heart tissue of CLP mice; format: in vivo, mouse
Experimental: as §1, §3
(§4) Protein purification and analysis—Isolated heart tissue or AC16 cells were homogenized in radioimmune precipitation assay buffer containing protease and phosphatase inhibitors (Pierce Protease and Phosphatase Inhibitor Mini Tablets, Thermo Scientific). 30-50 μg of total protein extract was applied to SDS-PAGE and transferred onto nitrocellulose membranes.

[6] = tested on: IκBα; assay: Phosphorylated and total IkBα immunoblot, ventricular tissue; format: in vivo, mouse; conditions: ventricular tissue 12 hours post-surgery
Experimental: as §4

[7] = tested on: IL-1α, IL-1β, IL-6, TNFα; assay: Cardiac mRNA expression of inflammatory cytokines; format: in vivo, mouse; conditions: 6 hours or 12 hours post-CLP
Experimental: as §3

[8] = tested on: IL-1α, IL-1β, IL-6, IL-10 and TNFα; assay: Plasma levels of cytokines (Milliplex); format: in vivo, mouse; conditions: plasma 12 hours post-surgery
Source text: Inflammatory cytokines measurement—Circulating levels of IL-1α, IL-1β, IL-6, IL-10 and TNFα were quantified simultaneously from frozen plasma samples using the Milliplex MAP Mouse Cytokine kit (MCYTOMAG-70K-05) following the kit specifications. Samples were read using the Luminex MAGPIX multiplexing unit.

[9] = tested on: β adrenergic receptors; assay: Radioligand binding assay for cardiac β-AR density; format: in vivo, mouse; conditions: hearts 12 h post-CLP, LGM2605 6 h post-CLP
Experimental: Radioligand binding assay—Plasma membranes from excised mouse hearts were prepared, and saturation radio-ligand binding was performed as described previously, using ^125I-CYP (iodocyanopindolol; PerkinElmer, Waltham, Mass.) for β-AR density measurement. Data were analyzed by nonlinear regression analysis using GraphPad Prism (GraphPad Software, La Jolla, Calif.).

[10] = tested on: ventricular tissue of septic mice; assay: Glucose and fatty-acid metabolism related gene expression in ventricular tissue; format: in vivo, mouse
Experimental: as §3

[11] = Plasma glucose and triglyceride levels in septic mice; format: in vivo, mouse
[12] = tested on: ventricular tissue of septic mice; assay: Antioxidant-related gene expression in ventricular tissue; format: in vivo, mouse; conditions: ventricular tissue 12 hours after CLP
Experimental: as §3

[13] = tested on: cardiac tissue isolated from septic mice; assay: Autophagy markers (LC3BII/LC3BI, Map1lc3b, BNIP3) in cardiac tissue; format: in vivo, mouse
Experimental: as §3, §4

[14] = ventricular tissue 12 hours after CLP

With `COc1cc(C[C@@H](CO[C@@H]2O[C@H](CO)[C@@H](O)[C@H](O)[C@H]2O)[C@H](CO[C@@H]2O[C@H](CO)[C@@H](O)[C@H](O)[C@H]2O)Cc2ccc(O)c(OC)c2)ccc1O` [LGM2605, secoisolariciresinol diglucoside] as the compound, how does the “adenylyl cyclase V/VI expression (AC/GAPDH ratio)” value [1] read?
Its value is “restores cyclase V/VI expression pre-CLP levels”.

And the cAMP levels ([2]; SDG in the presence of LPS)?
Its cAMP levels is “this increase was abolished in the presence of LPS”.

What about the cAMP levels ([2]; in the presence of forskolin or isoproterenol) of the same compound?
Its cAMP levels is “appears to be insignificant”.

What about the cAMP levels ([2]; non-stimulated, 12 hours) of the same compound?
Its cAMP levels is “increased cAMP levels”.

And the “protein kinase A (PKA) activity” value ([3]; SDG alone)?
The value was “increased protein kinase A (PKA) activity”.

What about the “protein kinase A (PKA) activity” value ([3]; SDG in the presence of LPS) of the same compound?
Its value is “this stimulation was abolished in the presence of LPS”.

What about the “protein kinase A (PKA) activity” value ([3]; SDG with isoproterenol) of the same compound?
The value was “the increase was amplified by isoproterenol”.

What about the “levels of DRP1, Opa, MFN1, MFN2, and FIS1 mRNAs” value ([4]; 6-hour LPS treatment (FIG. 8A)) of the same compound?
The value was “restored the levels of all the markers”.

What about the “levels of DRP1, Opa, MFN1, MFN2, and FIS1 mRNAs” value ([4]; 12 hour LPS treatment (FIG. 8B)) of the same compound?
The value was “restored the levels of all the markers, although only the change in MFN2 levels was statistically significant”.

What about the “MCU protein level (western blot)” value ([5]; heart tissue, SDG following CLP, listed as SDG) of the same compound?
Its value is “increases MCU protein level; also recorded: increased protein expression of the mitochondrial calcium uniporter”.

What about the “MCU and MICU1 mRNA and protein expression” value ([5]; ventricular tissue 12 hours post-CLP, LGM2605 6 hrs post-CLP) of the same compound?
Its value is “did not affect expression of these proteins”.

And the “phosphorylation of IκBα” value [6]?
The value was “prevented by LGM2605”.

What about the “cardiac mRNA levels of IL-1α, IL-1β, IL-6, and TNFα” value [7] of the same compound?
Its value is “did not reduce mRNA levels”.

What about the “circulating levels of IL-1α, IL-1β, IL-6, TNFα and IL-10” value [8] of the same compound?
Its value is “did not reduce circulating levels”.

What about the “cardiac β-AR density” value [9] of the same compound?
Its value is “not reversed by treatment with LGM2605”.

What about the “expression of fatty acid oxidation and glucose metabolism-related genes” value ([10]; CLP mice treated with SDG) of the same compound?
Its value is “did not restore the expression of fatty acid oxidation and glucose metabolism-related genes”.

What about the “PPARα and LCAD expression” value [10, 14] of the same compound?
Its value is “did not reverse the CLP-mediated changes in the PPARα and LCAD”.

What about the “cardiac PDK4 mRNA levels” value [10, 14] of the same compound?
The value was “This increase was not alleviated by administration of LGM2605”.

And the plasma glucose levels ([11]; 6 hours and 12 hours post-CLP)?
Its plasma glucose levels is “hypoglycemia in septic mice was not alleviated by the administration of LGM2605”.

What about the plasma triglyceride levels ([11]; 12 hours after surgery) of the same compound?
Its plasma triglyceride levels is “trend of increase, which did not occur in septic mice treated with LGM2605”.

What about the “cardiac expression of antioxidant genes (NRF2, HO1, GSTM1, NQO1, UCP2, UCP3)” value [12] of the same compound?
Its value is “not accompanied by prevention of the CLP-mediated changes in cardiac expression of antioxidant genes”.

And the “autophagy markers (LC3BII/LC3BI ratio; Map1lc3b and BNIP3 mRNA)” value ([13]; cardiac tissue from septic mice)?
Its value is “Neither marker was alleviated by LGM2605”.

And the “expression of the mitochondrial damage marker BNIP3” value ([13]; septic mice following LGM2605 administration)?
Its value is “trend for reduced expression of the mitochondrial damage marker BNIP3”.
